# Laboratory results as given in patent US10662205B2, “Cyclic boronic acid ester derivatives and therapeutic uses thereof” (priority 2014, dated 2020).
# Like-named read-outs stand apart in the source and are kept apart here.
# Key:
# [1] = tested on: KP1005 (CTX-M-14); test: Aztreonam potentiation (MPC@4); type: cell-based; details: aztreonam 4 μg/mL
# [2] = tested on: KP1009 (CTX-M-15); test: Aztreonam potentiation (MPC@4); type: cell-based; details: aztreonam 4 μg/mL
# [3] = tested on: ec308 (SHV-5); test: Aztreonam potentiation (MPC@4); type: cell-based; details: aztreonam 4 μg/mL
# [4] = tested on: KP1010 (SHV-12); test: Aztreonam potentiation (MPC@4); type: cell-based; details: aztreonam 4 μg/mL
# [5] = tested on: ec302 (TEM-10); test: Aztreonam potentiation (MPC@4); type: cell-based; details: aztreonam 4 μg/mL
# [6] = tested on: KP1004 (KPC-2); test: Aztreonam potentiation (MPC@4); type: cell-based; details: aztreonam 4 μg/mL
# [7] = tested on: ECL1002; test: Aztreonam potentiation (MPC@4); type: cell-based; details: aztreonam 4 μg/mL
# [8] = tested on: EC1010 (CMY-6); test: Aztreonam potentiation (MPC@4); type: cell-based; details: aztreonam 4 μg/mL
# [9] = tested on: KP1005 (CTX-M-14); test: Tigemonam potentiation (MPC@4); type: cell-based; details: tigemonam 4 μg/mL
# [10] = tested on: KP1009 (CTX-M-15); test: Tigemonam potentiation (MPC@4); type: cell-based
# [11] = tested on: ec308 (SHV-5); test: Tigemonam potentiation (MPC@4); type: cell-based; details: tigemonam 4 μg/mL
# [12] = tested on: KP1010 (SHV-12); test: Tigemonam potentiation (MPC@4); type: cell-based
# [13] = tested on: ec302 (TEM-10); test: Tigemonam potentiation (MPC@4); type: cell-based; details: tigemonam 4 μg/mL
# [14] = tested on: ECL1002; test: Tigemonam potentiation (MPC@4); type: cell-based; details: tigemonam 4 μg/mL
# [15] = tested on: EC1010 (CMY-6); test: Tigemonam potentiation (MPC@4); type: cell-based; details: tigemonam 4 μg/mL; EC1010, CMY-6
# [16] = biological target: CTX-M-14 (Escherichia coli, UniProt Q9L5C7); test: Inhibition of nitrocefin cleavage by purified enzyme (Ki); type: biochemical; details: nitrocefin reporter substrate; 10 min preincubation; read-out: Ki CTX-M-14, NCF
# CTX-M-14, sequence (Q9L5C7 29-291): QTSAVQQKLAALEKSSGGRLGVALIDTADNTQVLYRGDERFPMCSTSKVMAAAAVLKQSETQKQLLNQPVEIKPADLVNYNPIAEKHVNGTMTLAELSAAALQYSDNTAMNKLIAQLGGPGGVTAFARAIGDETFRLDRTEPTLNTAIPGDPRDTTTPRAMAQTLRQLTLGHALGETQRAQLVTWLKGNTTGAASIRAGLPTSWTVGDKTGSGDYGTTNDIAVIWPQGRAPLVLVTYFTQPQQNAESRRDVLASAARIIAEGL
# Description: (§1) Ki values of inhibition of purified class A, C and D enzymes were determined spectrophotometrically using nitrocefin as reporter substrate. Purified enzymes were mixed with various concentrations of inhibitors in reaction buffer and incubated for 10 min at room temperature. Nitrocefin was added and substrate cleavage profiles were recorded at 490 nm every 10 sec for 10 min.
# [17] = biological target: SHV-12 (Klebsiella pneumoniae, UniProt P0AD64, E235K/G234S/L31Q); test: as above; type: biochemical
# SHV-12, sequence (P0AD64 22-286 L31Q/G234S/E235K): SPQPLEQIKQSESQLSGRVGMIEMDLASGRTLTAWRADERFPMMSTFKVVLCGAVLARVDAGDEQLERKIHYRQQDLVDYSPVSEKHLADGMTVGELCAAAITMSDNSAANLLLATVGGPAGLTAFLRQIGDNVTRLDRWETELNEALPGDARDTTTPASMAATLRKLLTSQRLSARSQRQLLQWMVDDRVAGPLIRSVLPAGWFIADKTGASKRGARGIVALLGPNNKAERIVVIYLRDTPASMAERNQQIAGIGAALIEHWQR
# Description: as §1
# [18] = biological target: CMY-2 (Klebsiella pneumoniae, UniProt Q48434); test: as above; type: biochemical; details: nitrocefin reporter substrate; 10 min preincubation; read-out: Ki CMY-2, NCF
# CMY-2, sequence (Q48434 21-381, species assumed): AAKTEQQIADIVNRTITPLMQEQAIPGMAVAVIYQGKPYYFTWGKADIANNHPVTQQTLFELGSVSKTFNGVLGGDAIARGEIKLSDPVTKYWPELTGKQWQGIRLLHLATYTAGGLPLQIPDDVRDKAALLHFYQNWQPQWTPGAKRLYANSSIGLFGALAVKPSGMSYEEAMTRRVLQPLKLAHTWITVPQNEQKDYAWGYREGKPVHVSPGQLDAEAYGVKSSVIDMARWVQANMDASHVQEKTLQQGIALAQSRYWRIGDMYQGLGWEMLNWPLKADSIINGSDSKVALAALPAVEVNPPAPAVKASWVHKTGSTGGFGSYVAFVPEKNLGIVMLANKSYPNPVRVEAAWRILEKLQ
# Description: as §1, with “min. These experiments confirmed that the described compounds are inhibitors with a broad-spectrum of activity towards various β-lactamases.” for “min.”
# [19] = biological target: KPC-2 (Klebsiella pneumoniae, UniProt Q9F663); test: as above; type: biochemical; details: nitrocefin reporter substrate; 10 min preincubation; read-out: Ki KPC-2, NCF
# KPC-2, sequence (Q9F663 25-293, looked up, species assumed): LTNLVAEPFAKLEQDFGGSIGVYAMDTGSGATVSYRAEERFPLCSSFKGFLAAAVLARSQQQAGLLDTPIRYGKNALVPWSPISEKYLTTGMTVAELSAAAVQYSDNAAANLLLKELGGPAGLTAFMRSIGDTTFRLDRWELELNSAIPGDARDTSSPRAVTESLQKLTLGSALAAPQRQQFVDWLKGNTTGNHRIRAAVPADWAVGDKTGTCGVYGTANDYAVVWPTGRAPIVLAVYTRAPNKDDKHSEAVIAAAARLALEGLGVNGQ
# Description: as §1, with “min. These experiments confirmed that the described compounds are inhibitors with a broad-spectrum of activity towards various β-lactamases.” for “min.”
# [20] = biological target: OXA-48 (Klebsiella pneumoniae, UniProt Q6XEC0); test: as above; type: biochemical; details: nitrocefin reporter substrate; 10 min preincubation; read-out: Ki OXA-48, NCF
# OXA-48, sequence (Q6XEC0 23-265, looked up, species assumed): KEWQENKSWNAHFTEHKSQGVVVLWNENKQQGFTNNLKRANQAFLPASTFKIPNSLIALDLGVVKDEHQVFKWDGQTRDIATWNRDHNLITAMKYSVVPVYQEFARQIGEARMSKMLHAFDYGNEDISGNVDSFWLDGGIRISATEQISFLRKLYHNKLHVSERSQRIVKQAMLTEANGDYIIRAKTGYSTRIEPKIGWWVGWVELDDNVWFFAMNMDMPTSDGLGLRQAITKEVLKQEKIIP
# Description: as §1, with “min. These experiments confirmed that the described compounds are inhibitors with a broad-spectrum of activity towards various β-lactamases.” for “min.”
# [21] = biological target: P99 (Enterobacter cloacae, UniProt P05364); test: biochemical; details: nitrocefin reporter substrate; 10 min preincubation; read-out: Ki P99, NCF
# P99, sequence (P05364 21-381): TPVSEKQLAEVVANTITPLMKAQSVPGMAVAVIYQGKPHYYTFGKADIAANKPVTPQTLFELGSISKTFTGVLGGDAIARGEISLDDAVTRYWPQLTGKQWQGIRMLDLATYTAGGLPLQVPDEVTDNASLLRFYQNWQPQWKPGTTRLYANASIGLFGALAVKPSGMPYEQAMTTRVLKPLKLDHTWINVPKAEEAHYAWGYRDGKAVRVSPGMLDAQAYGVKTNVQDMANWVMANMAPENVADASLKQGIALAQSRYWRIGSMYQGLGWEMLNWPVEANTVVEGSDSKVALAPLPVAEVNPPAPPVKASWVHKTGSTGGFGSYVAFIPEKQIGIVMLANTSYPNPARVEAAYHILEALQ
# Description: as §1
# [22] = tested on: PAM1032/KPC-2; test: Biapenem potentiation MPC64, efflux proficient strain; type: cell-based, Pseudomonas aeruginosa; parameters: unit not given here; details: efflux proficient (MexAB-OprM overexpressed); decrease biapenem MIC 64-fold, 32 to 0.5 μg/ml
# Description: (§2) Efflux of BLIs from Pseudomonas aeruginosa by the MexAB-OprM efflux pump was also evaluated. The plasmid expressing the gene encoding KPC-2 was introduced into two strains of P. aeruginosa, PAM1032 and PAM1154 that overexpressed or lacked MexAB-OprM, respectively. Due to expression of KPC-2 both strains became resistant to biapenem. […] Potency of BLIs to potentiate biapenem in these strains was determined. […] The ratio of MPC64 values for each BLI in PAM1032/KPC-2 (efflux proficient) and PAM1154/KPC-2 (efflux deficient) was determined to generate the Efflux Index (EI).
# [23] = tested on: PAM1154/KPC-2; test: Biapenem potentiation MPC64, efflux deficient strain; type: cell-based, Pseudomonas aeruginosa; parameters: unit not given here; details: efflux deficient (lacks MexAB-OprM); decrease biapenem MIC 64-fold, 32 to 0.5 μg/ml
# Description: as §2
# [24] = Oral pharmacokinetics; type: in vivo; details: rat, plasma, rats, n=3, read-out: Range of % Oral Bioavailability
# Description: Several compounds were tested for their oral pharmacokinetics. Rats (n=3 per compound) were administered a single oral dose. Oral doses were administered as a bolus. Plasma (˜0.3 mL) samples were collected from each rat at designated time points up to 24 hours. Blood samples were centrifuged within 5 min of collection at 12000 g for 5 min to obtain plasma. The plasma samples were stored at −80° C. until analyzed. Data were analyzed using WinNonlin.
# [25] = tested on: KP1004 (KPC-2); test: Biapenem potentiation (MPC@1); details: biapenem 1 μg/mL
# [26] = tested on: KP1086 (OXA-48); test: Biapenem potentiation (MPC@1); details: biapenem 1 μg/mL
SMILES,MPC@4 aztreonam potentiation [1],MPC@4 aztreonam potentiation [2],MPC@4 aztreonam potentiation [3],MPC@4 aztreonam potentiation [4],MPC@4 aztreonam potentiation [5],MPC@4 aztreonam potentiation [6],MPC@4 aztreonam potentiation [7],MPC@4 aztreonam potentiation [8],MPC@4 tigemonam potentiation [9],MPC@4 tigemonam potentiation [10],MPC@4 tigemonam potentiation [11],MPC@4 tigemonam potentiation [12],MPC@4 tigemonam potentiation [13],MPC@4 tigemonam potentiation [14],MPC@4 tigemonam potentiation [15],Ki [16],Ki [17],Ki [18],Ki [19],Ki [20],further results
"Cn1nnnc1SCC(=O)N[C@H]1CC=C[C@@H]2CC(=O)OB1O2 [Compound 4, 2-(1-METHYL-1H-TETRAZOL-5-YLTHIO)-N-((2R,6S)-8-OXO-9,10-DIOXA-1-BORABICYCLO[4.3.1]DEC-4-EN-2-YL)ACETAMIDE]",X (X = MPC@4 ≤ 5 μg/mL),X (X = MPC@4 ≤ 5 μg/mL),X (X = MPC@4 ≤ 5 μg/mL),X (X = MPC@4 ≤ 5 μg/mL),X (X = MPC@4 ≤ 5 μg/mL),X (X = MPC@4 ≤ 5 μg/mL),X (X = MPC@4 ≤ 5 μg/mL),X (X = MPC@4 ≤ 5 μg/mL),Y (Y = 5 μg/mL < MPC@4 ≤ 20 μg/mL),X (key: X = MPC@4 ≤ 5 μg/mL; Y = 5 μg/mL < MPC@4 ≤ 20 μg/mL; Z = MPC@4 > 20 μg/mL),X (X = MPC@4 ≤ 5 μg/mL),X (key: X = MPC@4 ≤ 5 μg/mL; Y = 5 μg/mL < MPC@4 ≤ 20 μg/mL; Z = MPC@4 > 20 μg/mL),Y (Y = 5 μg/mL < MPC@4 ≤ 20 μg/mL),X (X = MPC@4 ≤ 5 μg/mL),X (X = MPC@4 ≤ 5 μg/mL),< 100 nM,< 100 nM,< 100 nM,100 to 1000 nM,< 100 nM,Ki [21]: < 100 nM; PAM1032/KPC-2 Biapenem MPC64 [22]: >80; PAM1154/KPC-2 Biapenem MPC64 [23]: 10; bioavailability ([24]; single oral dose 50 mg/kg): 3.2 to 4.6%; MPC@1 biapenem potentiation [25]: X (X = MPC@1 ≤ 5 μg/mL); MPC@1 biapenem potentiation [26]: Z (Z = MPC@1 > 20 μg/mL)
"CSCC(=O)N[C@H]1CC=C[C@@H]2CC(=O)OB1O2 [Compound 1, 2-(METHYLTHIO)-N-((2R,6S)-8-OXO-9,10-DIOXA-1-BORABICYCLO[4.3.1]DEC-4-EN-2-YL)ACETAMIDE]",X (X = MPC@4 ≤ 5 μg/mL),X (X = MPC@4 ≤ 5 μg/mL),X (X = MPC@4 ≤ 5 μg/mL),X (X = MPC@4 ≤ 5 μg/mL),X (X = MPC@4 ≤ 5 μg/mL),X (X = MPC@4 ≤ 5 μg/mL),X (X = MPC@4 ≤ 5 μg/mL),X (X = MPC@4 ≤ 5 μg/mL),X (X = MPC@4 ≤ 5 μg/mL),X (key: X = MPC@4 ≤ 5 μg/mL; Y = 5 μg/mL < MPC@4 ≤ 20 μg/mL; Z = MPC@4 > 20 μg/mL),X (X = MPC@4 ≤ 5 μg/mL),X (key: X = MPC@4 ≤ 5 μg/mL; Y = 5 μg/mL < MPC@4 ≤ 20 μg/mL; Z = MPC@4 > 20 μg/mL),Y (Y = 5 μg/mL < MPC@4 ≤ 20 μg/mL),X (X = MPC@4 ≤ 5 μg/mL),X (X = MPC@4 ≤ 5 μg/mL),< 100 nM,< 100 nM,< 100 nM,100 to 1000 nM,< 100 nM,Ki [21]: < 100 nM; PAM1032/KPC-2 Biapenem MPC64 [22]: 80; PAM1154/KPC-2 Biapenem MPC64 [23]: 5; bioavailability ([24]; single oral dose 30 mg/kg): 44 to 61%; bioavailability ([24]; single oral dose 100 mg/kg): 63 to 74%; bioavailability ([24]; single oral dose 300 mg/kg): 61 to 77%; MPC@1 biapenem potentiation [25]: X (X = MPC@1 ≤ 5 μg/mL); MPC@1 biapenem potentiation [26]: Z (Z = MPC@1 > 20 μg/mL)
